Test system: up to 32 different microorganisms
Test: in vitro antibacterial activity (MIC), agar dilution on Brain Heart Infusion (BHI) agar with Steers replicator
Format: cell-based
Settings: unit assumed
In short: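 Twelve plates carried successive aqueous dilutions of test compound in BHI agar; inocula were 1:100 dilutions (1:10 for slow growers such as Micrococcus, Streptococcus), incubated 35°-37° C for 20 to 24 hours. MIC was the lowest concentration giving no growth, slight haze, or sparse isolated colonies versus growth control.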

Compound | MIC (organism code AA) | MIC (organism code BB) | MIC (organism code CC) | MIC (organism code DD) | MIC (organism code EE) | MIC (organism code FF) | MIC (organism code GG) | MIC (organism code HH) | MIC (organism code II) | MIC (organism code JJ) | MIC (organism code KK) | MIC (organism code MM) | MIC (organism code NN) | MIC (organism code OO) | MIC (organism code PP) | MIC (organism code QQ) | MIC (organism code RR) | MIC (organism code SS) | MIC (organism code TT) | MIC (organism code UU) | other results
CCC1OC(=O)C(C)C(=O)C(C)C(OC2OC(C)CC(N(C)C)C2O)C(C)(OCC=Cc2ccc3ncc(-c4cccs4)cc3c2)CC(C)C(=O)C(C)C2NC(=O)OC12C (centres unmarked) [Example 275, Compound of Formula (IX): L is CO, T is NH2, R is —CH2CH═CH-(3-(2-thiphenyl)-6-quinolyl)] | 0.2 µg/mL | 0.2 µg/mL | > 100 µg/mL | 0.2 µg/mL | 0.2 µg/mL | 0.2 µg/mL | > 100 µg/mL | 0.2 µg/mL | 0.1 µg/mL | 0.01 µg/mL | 0.05 µg/mL | 12.5 µg/mL | 0.2 µg/mL | 0.02 µg/mL | 0.2 µg/mL | > 100 µg/mL | 0.78 µg/mL | > 100 µg/mL | > 100 µg/mL | 0.39 µg/mL | MIC (organism code LL): 0.02 µg/mL; MIC (organism code VV): 0.2 µg/mL; MIC (organism code WW): 8 µg/mL; MIC (organism code XX): 0.03 µg/mL; MIC (organism code YY): 0.03 µg/mL; MIC (organism code ZZ): 4 µg/mL; MIC (organism code ZZA): 0.5 µg/mL
CCC1OC(=O)C(C)C(=O)C(C)C(OC2OC(C)CC(N(C)C)C2O)C(C)(OCC=Cc2ccc(C)c3ccccc23)CC(C)C(=O)C(C)C2NC(=O)OC12C (centres unmarked) [Example 276, Compound of Formula (IX): L is CO, T is NH2, R is —CH2CH═CH-(4-methylnaphthyl)] | 0.39 µg/mL | 0.78 µg/mL | 50 µg/mL | 0.39 µg/mL | 0.78 µg/mL | 0.78 µg/mL | 25 µg/mL | 0.78 µg/mL | 0.2 µg/mL | 0.02 µg/mL | 0.1 µg/mL | 25 µg/mL | 0.39 µg/mL | 0.1 µg/mL | 0.39 µg/mL | > 100 µg/mL | 6.2 µg/mL | > 100 µg/mL | > 100 µg/mL | 0.78 µg/mL | MIC (organism code LL): 0.02 µg/mL; MIC (organism code VV): 1.56 µg/mL; MIC (organism code WW): 8 µg/mL; MIC (organism code XX): 0.125 µg/mL; MIC (organism code YY): 0.125 µg/mL; MIC (organism code ZZ): 16 µg/mL; MIC (organism code ZZA): 0.5 µg/mL
CCC1OC(=O)C(C)C(=O)C(C)C(OC2OC(C)CC(N(C)C)C2O)C(C)(OCC=Cc2ccc3cccnc3c2)CC(C)C(=O)C(C)C2NC(=O)OC12C (centres unmarked) [Example 278, Compound of Formula (IX): L is CO, T is NH2, R is —CH2CH═CH-(7-quinolyl)] | 0.05 µg/mL | 0.05 µg/mL | > 100 µg/mL | 0.05 µg/mL | 0.05 µg/mL | 0.05 µg/mL | > 100 µg/mL | 0.1 µg/mL | 0.05 µg/mL | 0.01 µg/mL | 0.01 µg/mL | 1.56 µg/mL | 0.2 µg/mL | 0.01 µg/mL | 0.1 µg/mL | 25 µg/mL | 0.39 µg/mL | 12.5 µg/mL | > 100 µg/mL | 0.78 µg/mL | MIC (organism code LL): ≤ 0.005 µg/mL; MIC (organism code VV): 0.02 µg/mL; MIC (organism code WW): 4 µg/mL; MIC (organism code XX): 0.03 µg/mL; MIC (organism code YY): 0.03 µg/mL; MIC (organism code ZZ): 128 µg/mL; MIC (organism code ZZA): 0.5 µg/mL
CCC1OC(=O)C(C)C(=O)C(C)C(OC2OC(C)CC(N(C)C)C2O)C(C)(OCC=Cc2ccc(F)c3ccccc23)CC(C)C(=O)C(C)C2NC(=O)OC12C (centres unmarked) [Example 279, Compound of Formula (IX): L is CO, T is NH2, R is —CH2CH═CH-(4-fluoronaphthyl)] | 0.39 µg/mL | 0.39 µg/mL | 50 µg/mL | 0.78 µg/mL | 0.39 µg/mL | 0.39 µg/mL | 50 µg/mL | 0.39 µg/mL | 0.2 µg/mL | 0.05 µg/mL | 0.02 µg/mL | 25 µg/mL | 0.39 µg/mL | 0.05 µg/mL | 0.39 µg/mL | > 100 µg/mL | 1.56 µg/mL | > 100 µg/mL | > 100 µg/mL | 0.78 µg/mL | MIC (organism code VV): 0.78 µg/mL; MIC (organism code WW): 8 µg/mL; MIC (organism code XX): 0.03 µg/mL; MIC (organism code YY): 0.03 µg/mL; MIC (organism code ZZ): 32 µg/mL; MIC (organism code ZZA): 0.5 µg/mL
